# Test results reported in the kinase profiling compilation of Christmann-Franck et al. (2016).
# Key:
# Assay in all cases: KINOMEscan competition binding
# Settings in all cases: compound 10.0 µM
# [1] = tested on: KIT (human), P10721 [D816V]
# CAMK4 (human) = CAMK4 (human) (UniProt Q16566)
# CDK11B (human) = CDK11B (human) (UniProt P21127)
# MAPKAPK5 (human) = MAPKAPK5 (human) (UniProt Q8IW41)
# STK33 (human) = STK33 (human) (UniProt Q9BYT3)
# BMPR1A (human) = BMPR1A (human) (UniProt P36894)
# PIM1 (human) = PIM1 (human) (UniProt P11309)
# CAMKK1 (human) = CAMKK1 (human) (UniProt Q8N5S9)
# PRKD2 (human) = PRKD2 (human) (UniProt Q9BZL6)
# PAK4 (human) = PAK4 (human) (UniProt O96013)
# EPHB2 (human) = EPHB2 (human) (UniProt P29323)
# EPHB2 (human), sequence (P29323 whole entry, looked up): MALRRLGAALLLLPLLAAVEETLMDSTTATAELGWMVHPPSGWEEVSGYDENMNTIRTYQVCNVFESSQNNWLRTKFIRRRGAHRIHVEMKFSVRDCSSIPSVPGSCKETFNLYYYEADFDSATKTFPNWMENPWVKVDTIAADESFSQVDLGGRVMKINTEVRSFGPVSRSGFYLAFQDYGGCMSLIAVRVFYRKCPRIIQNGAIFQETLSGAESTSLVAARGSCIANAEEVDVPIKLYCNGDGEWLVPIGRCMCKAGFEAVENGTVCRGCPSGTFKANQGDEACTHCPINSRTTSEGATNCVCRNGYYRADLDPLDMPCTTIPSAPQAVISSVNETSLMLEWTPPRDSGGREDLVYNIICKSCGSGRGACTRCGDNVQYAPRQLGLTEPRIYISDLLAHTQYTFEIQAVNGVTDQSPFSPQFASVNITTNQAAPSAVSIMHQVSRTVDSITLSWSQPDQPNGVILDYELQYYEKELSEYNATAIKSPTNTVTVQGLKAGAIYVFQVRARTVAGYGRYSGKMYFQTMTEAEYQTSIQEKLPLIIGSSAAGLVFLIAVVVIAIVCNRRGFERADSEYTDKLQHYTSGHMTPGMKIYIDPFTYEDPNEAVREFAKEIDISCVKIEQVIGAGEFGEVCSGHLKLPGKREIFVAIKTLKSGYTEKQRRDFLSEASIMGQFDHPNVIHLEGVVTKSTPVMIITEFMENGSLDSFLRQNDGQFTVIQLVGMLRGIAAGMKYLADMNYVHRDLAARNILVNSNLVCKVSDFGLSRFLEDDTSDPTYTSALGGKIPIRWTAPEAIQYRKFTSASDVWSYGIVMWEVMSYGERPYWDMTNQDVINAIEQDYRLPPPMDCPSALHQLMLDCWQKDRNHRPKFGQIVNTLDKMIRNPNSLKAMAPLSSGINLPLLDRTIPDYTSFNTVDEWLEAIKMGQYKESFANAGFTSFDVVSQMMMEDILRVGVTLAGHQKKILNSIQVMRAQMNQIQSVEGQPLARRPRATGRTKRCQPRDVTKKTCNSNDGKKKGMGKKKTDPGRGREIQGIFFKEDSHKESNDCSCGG
# IRAK3 (human) = IRAK3 (human) (UniProt Q9Y616)
# [2] = tested on: ABL1 (human), P00519 [M351T]
# CDK18 (human) = CDK18 (human) (UniProt Q07002)
# MYO3B (human) = MYO3B (human) (UniProt Q8WXR4)
# [3] = molecular target: TYK2 JH2 pseudokinase (human) (UniProt P29597)
# EIF2AK2 (human) = EIF2AK2 (human) (UniProt P19525)
# FYN (human) = FYN (human) (UniProt P06241)
# CDK8 (human) = CDK8 (human) (UniProt P49336)
# BMPR2 (human) = BMPR2 (human) (UniProt Q13873)
# CSNK1D (human) = CSNK1D (human) (UniProt P48730)
# MAP2K6 (human) = MAP2K6 (human) (UniProt P52564)
# MAP2K6 (human), sequence (P52564 whole entry, looked up): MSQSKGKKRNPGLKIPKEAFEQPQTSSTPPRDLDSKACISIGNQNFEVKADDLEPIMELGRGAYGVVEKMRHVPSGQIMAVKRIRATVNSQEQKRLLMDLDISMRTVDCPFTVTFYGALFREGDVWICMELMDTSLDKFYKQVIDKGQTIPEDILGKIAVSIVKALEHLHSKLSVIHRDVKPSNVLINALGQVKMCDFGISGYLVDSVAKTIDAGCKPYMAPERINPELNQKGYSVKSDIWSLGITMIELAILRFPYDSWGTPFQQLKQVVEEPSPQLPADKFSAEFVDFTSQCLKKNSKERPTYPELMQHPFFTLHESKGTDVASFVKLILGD
# STK11 (human) = STK11 (human) (UniProt Q15831)
# RPS6KA1 KD1 (human) = RPS6KA1 KD1 (human) (UniProt Q15418)
# RPS6KA1 KD1 (human), sequence (Q15418 whole entry, looked up): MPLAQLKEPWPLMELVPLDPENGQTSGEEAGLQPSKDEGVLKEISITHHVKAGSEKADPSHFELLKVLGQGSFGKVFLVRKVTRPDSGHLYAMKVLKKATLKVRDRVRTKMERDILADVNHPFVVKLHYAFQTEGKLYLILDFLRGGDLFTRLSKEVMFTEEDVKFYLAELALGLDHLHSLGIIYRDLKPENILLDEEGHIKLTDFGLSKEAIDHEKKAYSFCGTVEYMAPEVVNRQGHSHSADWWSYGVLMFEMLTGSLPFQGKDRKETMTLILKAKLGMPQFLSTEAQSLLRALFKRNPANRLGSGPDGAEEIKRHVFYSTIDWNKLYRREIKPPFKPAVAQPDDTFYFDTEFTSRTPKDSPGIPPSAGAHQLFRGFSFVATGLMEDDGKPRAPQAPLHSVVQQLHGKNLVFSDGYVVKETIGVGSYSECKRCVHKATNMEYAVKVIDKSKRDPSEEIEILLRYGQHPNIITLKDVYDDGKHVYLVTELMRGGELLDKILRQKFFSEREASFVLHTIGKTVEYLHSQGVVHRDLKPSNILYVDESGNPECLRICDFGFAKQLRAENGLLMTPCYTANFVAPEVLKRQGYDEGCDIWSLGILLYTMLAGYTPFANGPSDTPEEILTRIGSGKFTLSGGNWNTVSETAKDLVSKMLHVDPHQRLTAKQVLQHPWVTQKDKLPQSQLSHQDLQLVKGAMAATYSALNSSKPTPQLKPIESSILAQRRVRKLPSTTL
# MLTK (human) = MLTK (human) (UniProt Q9NYL2)
# TEC (human) = TEC (human) (UniProt P42680)
# CDKL2 (human) = CDKL2 (human) (UniProt Q92772)
# PRKACA (human) = PRKACA (human) (UniProt P17612)
# PDGFRB (human) = PDGFRB (human) (UniProt P09619)
# CDK17 (human) = CDK17 (human) (UniProt Q00537)
# CDK17 (human), sequence (Q00537 whole entry, looked up): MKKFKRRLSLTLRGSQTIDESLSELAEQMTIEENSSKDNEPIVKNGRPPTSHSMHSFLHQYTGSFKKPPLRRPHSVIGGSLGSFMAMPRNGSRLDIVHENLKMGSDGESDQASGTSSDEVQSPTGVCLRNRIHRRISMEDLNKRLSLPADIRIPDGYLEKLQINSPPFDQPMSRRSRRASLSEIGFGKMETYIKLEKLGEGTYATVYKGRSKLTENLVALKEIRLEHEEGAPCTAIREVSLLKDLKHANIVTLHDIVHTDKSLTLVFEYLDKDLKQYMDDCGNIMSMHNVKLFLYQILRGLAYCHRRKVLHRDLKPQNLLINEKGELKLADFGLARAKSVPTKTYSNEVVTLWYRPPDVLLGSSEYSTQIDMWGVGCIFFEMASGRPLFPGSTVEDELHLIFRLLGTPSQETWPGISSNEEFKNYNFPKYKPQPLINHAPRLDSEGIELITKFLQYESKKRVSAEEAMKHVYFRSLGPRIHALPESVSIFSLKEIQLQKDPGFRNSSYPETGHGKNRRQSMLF
# CDC42BPB (human) = CDC42BPB (human) (UniProt Q9Y5S2)
# CDC42BPB (human), sequence (Q9Y5S2 whole entry, looked up): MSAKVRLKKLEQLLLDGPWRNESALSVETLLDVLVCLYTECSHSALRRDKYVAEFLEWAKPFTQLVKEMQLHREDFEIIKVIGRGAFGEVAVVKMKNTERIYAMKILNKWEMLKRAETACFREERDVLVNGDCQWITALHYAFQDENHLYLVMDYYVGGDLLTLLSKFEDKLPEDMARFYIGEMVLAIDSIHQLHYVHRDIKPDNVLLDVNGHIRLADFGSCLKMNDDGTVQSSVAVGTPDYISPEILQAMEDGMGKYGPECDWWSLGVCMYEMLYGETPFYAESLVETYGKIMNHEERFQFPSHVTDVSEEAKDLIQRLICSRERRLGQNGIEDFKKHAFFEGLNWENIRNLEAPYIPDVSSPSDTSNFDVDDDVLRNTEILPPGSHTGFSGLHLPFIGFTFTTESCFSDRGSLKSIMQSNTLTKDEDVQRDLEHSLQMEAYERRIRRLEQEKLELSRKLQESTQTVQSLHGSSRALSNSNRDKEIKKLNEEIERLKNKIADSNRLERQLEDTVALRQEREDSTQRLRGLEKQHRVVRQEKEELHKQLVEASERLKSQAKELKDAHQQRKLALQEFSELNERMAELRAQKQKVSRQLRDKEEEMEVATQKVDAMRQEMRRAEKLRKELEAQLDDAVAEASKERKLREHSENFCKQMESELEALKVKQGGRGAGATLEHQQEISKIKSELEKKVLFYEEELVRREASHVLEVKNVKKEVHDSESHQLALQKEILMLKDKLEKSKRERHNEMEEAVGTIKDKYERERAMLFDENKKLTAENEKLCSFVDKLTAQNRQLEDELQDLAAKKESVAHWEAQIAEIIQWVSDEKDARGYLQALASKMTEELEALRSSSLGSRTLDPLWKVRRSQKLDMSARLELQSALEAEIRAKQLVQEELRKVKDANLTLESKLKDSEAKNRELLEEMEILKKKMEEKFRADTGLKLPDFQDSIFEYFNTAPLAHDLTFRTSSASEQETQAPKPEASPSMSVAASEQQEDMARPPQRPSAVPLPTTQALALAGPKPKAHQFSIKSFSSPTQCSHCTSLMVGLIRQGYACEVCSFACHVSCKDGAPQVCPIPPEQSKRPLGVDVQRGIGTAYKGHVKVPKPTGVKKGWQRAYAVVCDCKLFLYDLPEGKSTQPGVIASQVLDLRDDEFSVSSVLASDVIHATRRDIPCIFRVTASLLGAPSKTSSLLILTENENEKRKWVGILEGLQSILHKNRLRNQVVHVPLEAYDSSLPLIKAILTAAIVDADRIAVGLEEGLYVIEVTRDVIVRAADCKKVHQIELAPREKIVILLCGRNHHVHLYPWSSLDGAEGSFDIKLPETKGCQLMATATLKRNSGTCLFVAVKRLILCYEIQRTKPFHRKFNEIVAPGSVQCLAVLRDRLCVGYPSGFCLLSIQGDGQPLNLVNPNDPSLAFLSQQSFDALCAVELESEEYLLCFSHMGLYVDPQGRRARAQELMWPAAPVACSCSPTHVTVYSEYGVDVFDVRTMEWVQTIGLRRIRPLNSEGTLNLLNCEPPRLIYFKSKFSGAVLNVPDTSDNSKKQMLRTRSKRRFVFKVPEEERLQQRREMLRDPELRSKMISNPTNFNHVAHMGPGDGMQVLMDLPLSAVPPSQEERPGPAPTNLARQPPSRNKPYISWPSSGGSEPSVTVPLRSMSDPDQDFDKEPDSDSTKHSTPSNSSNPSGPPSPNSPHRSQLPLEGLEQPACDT
# MAP2K3 (human) = MAP2K3 (human) (UniProt P46734)
# ABL2 (human) = ABL2 (human) (UniProt P42684)
# NEK9 (human) = NEK9 (human) (UniProt Q8TD19)
# MARK1 (human) = MARK1 (human) (UniProt Q9P0L2)
# SRC (human) = SRC (human) (UniProt P12931)
# MYLK (human) = MYLK (human) (UniProt Q15746)
# MAP3K3 (human) = MAP3K3 (human) (UniProt Q99759)
# STK33 (human), sequence (Q9BYT3 whole entry, looked up): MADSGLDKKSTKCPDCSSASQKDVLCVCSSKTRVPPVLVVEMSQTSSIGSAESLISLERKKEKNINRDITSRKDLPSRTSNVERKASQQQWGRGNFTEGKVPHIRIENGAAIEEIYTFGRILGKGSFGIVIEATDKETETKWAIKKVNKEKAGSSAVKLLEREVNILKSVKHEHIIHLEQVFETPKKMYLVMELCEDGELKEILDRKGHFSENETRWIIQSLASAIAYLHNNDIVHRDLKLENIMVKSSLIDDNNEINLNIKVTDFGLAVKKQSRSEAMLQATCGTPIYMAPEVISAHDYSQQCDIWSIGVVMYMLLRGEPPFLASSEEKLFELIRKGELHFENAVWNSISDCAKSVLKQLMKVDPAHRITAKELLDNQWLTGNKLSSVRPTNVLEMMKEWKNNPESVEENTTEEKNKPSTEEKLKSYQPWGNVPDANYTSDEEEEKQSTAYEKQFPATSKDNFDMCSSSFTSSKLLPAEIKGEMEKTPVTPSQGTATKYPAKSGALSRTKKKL
smiles,measurement,setting,value
CCOc1cc2ncc(C#N)c(Nc3ccc(OCc4ccccn4)c(Cl)c3)c2cc1NC(=O)/C=C/CN(C)C,"kinase still bound, per cent of control",[1],70%
same,"kinase still bound, per cent of control",CAMK4 (human),100%
same,"kinase still bound, per cent of control",CDK11B (human),97%
same,"kinase still bound, per cent of control",MAPKAPK5 (human),89%
same,"kinase still bound, per cent of control",STK33 (human),42%
same,"kinase still bound, per cent of control",BMPR1A (human),89%
same,"kinase still bound, per cent of control",PIM1 (human),100%
same,"kinase still bound, per cent of control",CAMKK1 (human),100%
same,"kinase still bound, per cent of control",PRKD2 (human),50%
same,"kinase still bound, per cent of control",PAK4 (human),93%
same,"kinase still bound, per cent of control",EPHB2 (human),86%
same,"kinase still bound, per cent of control",IRAK3 (human),85%
same,"kinase still bound, per cent of control",[2],100%
same,"kinase still bound, per cent of control",CDK18 (human),96%
same,"kinase still bound, per cent of control",MYO3B (human),100%
same,"kinase still bound, per cent of control",[3],99%
same,"kinase still bound, per cent of control",EIF2AK2 (human),100%
same,"kinase still bound, per cent of control",FYN (human),84%
same,"kinase still bound, per cent of control",CDK8 (human),100%
same,"kinase still bound, per cent of control",BMPR2 (human),78%
same,"kinase still bound, per cent of control",CSNK1D (human),60%
same,"kinase still bound, per cent of control",MAP2K6 (human),100%
same,"kinase still bound, per cent of control",STK11 (human),94%
same,"kinase still bound, per cent of control",RPS6KA1 KD1 (human),57%
same,"kinase still bound, per cent of control",MLTK (human),70%
same,"kinase still bound, per cent of control",TEC (human),73%
same,"kinase still bound, per cent of control",CDKL2 (human),100%
same,"kinase still bound, per cent of control",PRKACA (human),95%
same,"kinase still bound, per cent of control",PDGFRB (human),69%
same,"kinase still bound, per cent of control",CDK17 (human),100%
same,"kinase still bound, per cent of control",CDC42BPB (human),100%
same,"kinase still bound, per cent of control",MAP2K3 (human),100%
same,"kinase still bound, per cent of control",ABL2 (human),92%
same,"kinase still bound, per cent of control",NEK9 (human),100%
same,"kinase still bound, per cent of control",MARK1 (human),94%
same,"kinase still bound, per cent of control",SRC (human),82%
same,"kinase still bound, per cent of control",MYLK (human),73%
same,"kinase still bound, per cent of control",MAP3K3 (human),3.8%
